In this test the target is T1, oxidosqualene cyclase (Rattus norvegicus, UniProt P48450).
T1 construct: Microsomes, prepared by ultracentrifugation of homogenates of rat liver; from tissue; host or cells: rat liver microsomes plus high speed supernatant fraction
T1 sequence (P48450 1-733): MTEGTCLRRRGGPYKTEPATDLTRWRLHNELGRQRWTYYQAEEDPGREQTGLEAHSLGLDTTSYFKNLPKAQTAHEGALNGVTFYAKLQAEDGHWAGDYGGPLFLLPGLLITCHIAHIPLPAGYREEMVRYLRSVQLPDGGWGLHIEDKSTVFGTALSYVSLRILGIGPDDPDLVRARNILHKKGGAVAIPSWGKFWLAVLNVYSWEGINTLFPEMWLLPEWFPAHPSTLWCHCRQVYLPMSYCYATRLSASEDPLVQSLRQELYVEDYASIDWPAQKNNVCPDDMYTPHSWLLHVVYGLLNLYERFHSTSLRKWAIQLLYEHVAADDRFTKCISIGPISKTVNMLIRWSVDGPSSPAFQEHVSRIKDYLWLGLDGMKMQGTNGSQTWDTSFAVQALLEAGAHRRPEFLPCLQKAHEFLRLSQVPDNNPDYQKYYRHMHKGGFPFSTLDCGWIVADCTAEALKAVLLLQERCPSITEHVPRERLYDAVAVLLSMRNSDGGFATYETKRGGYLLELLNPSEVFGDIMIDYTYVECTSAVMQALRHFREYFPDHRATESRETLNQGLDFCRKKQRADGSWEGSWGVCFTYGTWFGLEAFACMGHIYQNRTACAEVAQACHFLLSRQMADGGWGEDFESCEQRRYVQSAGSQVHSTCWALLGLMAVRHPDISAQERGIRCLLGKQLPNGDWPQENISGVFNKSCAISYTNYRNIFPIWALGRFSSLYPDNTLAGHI
Put plainly: Inhibition of cholesterol biosynthesis: oxidosqualene cyclase in rat liver microsomes (TLC or HPLC assay). Format: biochemical. As to conditions: 37°C, 45 minutes, 60µM ³H-squalene, 2.0mM NADPH, 0.01mM FAD, compounds tested at 0.0 to 100.0µM, read-out: Cyclase, IC₅₀. The procedure: The following example illustrates the utility of compounds of formula (1) in inhibiting cholesterol biosynthesis. This example is understood to be illustrative only and is not intended to limit the scope of the present invention in any way. Microsomes, prepared by ultracentrifugation of homogenates of rat liver, are incubated at 37°C for 45 muinutes in the presence of 60µM ³H-squalene, 2.0mM NADPH, 0.01mM FAD, and the high speed supernatant fraction from the microsomal preparation. Blanks, in which NADPH has been omitted, are run simultaneously with the test compounds. Compounds are tested at concentrations of 0.0 to 100.0µM.
• a) TLC Assay: Following incubation, the samples are saponified, standards are added to each sample, and then the reaction products are extracted into hexane. […] Spots containing the reaction products are scraped from the TLC plates and counted for ³H-radioactivity in a scintillation counter. An IC₅₀ for squalene epoxidase and oxidosqualene cyclase is calculated. • b) HPLC Assay: Following incubation, reactions are stopped by the addition of chloroform:methanol, standards are added, then reaction products and standards are extracted into chloroform. […] Chromatographic peaks containing reaction products are monitored for ³H- radioactivity with a flow-through scintillation counter connected in series with the HPLC column. […]
On the technique in general: Microsomes from liver hold many membrane-bound enzymes, among them those of drug oxidation.

Bounds are passed on as bounds.

As for `CC(C)CCSCCCCCN1CCCCC1` [Compound A], the IC50 amounted to 24 µM.

`CCSCCN1CCCCC1` [Compound E, 2-(1-piperidyl)ethyl ethyl sulfide]: the IC50 was over 100 µM.

These data come from patent EP0468434B1, “Novel piperidyl ethers and thioethers as inhibitors of cholesterol biosynthesis” (MERRELL DOW PHARMACEUTICALS INC., priority 1990, dated 1992).
